The values that follow are results of earlier work, collected in US20040002514A1, “Topical use of hydroxyeicosatetraenoic acid compounds to treat psoriasis” (Alcon, Inc., priority 2002, published 2004).

Series [1] deals with IL-8 production by human bone marrow stromal cells. The note with it: 1 μM to 0.1 nM.
Series [2] concerns leukotriene B4 production or its activity.
For another series, the system named is colitis. The note with it: in vivo.
The test system of series [3] is IL-6 synthesis by bone marrow stromal cells.

For the compound `CCCCC[C@H](O)/C=C/C=C\C/C=C\C/C=C\CCCC(=O)O` [15-HETE, 15-Hydroxyeicosatetraenoic acid], in series [1], the “effect on spontaneous and serum-induced production of IL-8” value was “no effect”. Moreover, the improvement of psoriasis result in the series with psoriatic skin lesions (injected into psoriatic skin lesions) is reported as “can improve psoriasis”. Further, the “amount required to cause a clinical effect” value in the series on psoriatic skin lesions (intralesional injection, 0.1 ml of 10 lmol/L) is 300 ng. Further, in series [2], the “effect on leukotriene B4 production or its activity” value is “inhibitory effects”. In the series on colitis, the “anti-inflammatory properties in colitis” value is recorded as “minor anti-inflammatory properties”. In addition, the “effect on spontaneous, serum- and cytokine-induced IL-6 synthesis” value in series [3] was “no effect”.
